Patent US20070128217A1 (priority 2003, published 2007)

How the values were obtained:
[1] = tested on: rabbit serum obtained by immunizing a rabbit with the SARS-CoV strain Frankfurt 1; type: binding; design: Binding of a rabbit serum to linear peptides / Binding of a rabbit serum to looped peptides / Rabbit serum linear peptides / Rabbit serum looped peptides / Binding of a rabbit serum to linear peptides of protein N of SARS-CoV Urbani (Rabbit serum linear peptides) / Binding of a rabbit serum to looped/cyclic peptides of protein N of SARS-CoV Urbani (Rabbit serum looped peptides): unit not given here
[2] = tested on: control sera (pooled serum of ten healthy LUMC hospital workers; commercial negative donor pooled serum from the Dutch bloodbank); type: binding, human; design: Binding of Control serum LUMC to linear peptides / Binding of Control serum Blood-bank to linear peptides / Binding of Control serum LUMC to looped peptides / Binding of Control Serum Blood-Bank to Looped peptides / Binding of Control serum LUMC to linear peptides of the protein M of SARS-CoV Urbani / Binding of Control serum Blood-bank to linear peptides of the protein M of SARS-CoV Urbani / Binding of Control serum LUMC to looped peptides of the protein M of SARS-CoV Urbani / Binding of Control Serum Blood-Bank to Looped peptides of the protein M of SARS-CoV Urbani: unit not given here
[3] = tested on: antibodies in sera from SARS patients (sera 1a, 1b, 2, 6, 37, 62, London, SARS-yellow, SARS-green); type: binding, human; design: Binding of serum 6 to linear peptides of protein X1 of SARS-CoV Urbani / Binding of serum 37 to linear peptides of protein X1 of SARS-CoV Urbani / Binding of serum 6 to looped/cyclic peptide (PEPSCAN-ELISA) / Binding of serum 37 to looped/cyclic peptide (PEPSCAN-ELISA) / Binding of serum 37 to looped/cyclic peptides of protein X1 of SARS-CoV Urbani / Binding of serum 6 to linear peptides of protein X2 / Binding of serum 37 to linear peptides of protein X2 / Binding of serum 37 to looped/cyclic peptides of protein X2 of SARS-CoV Urbani / Binding of serum 6 to linear peptides of protein M of SARS-CoV Urbani / Binding of serum 37 to linear peptides of protein M of SARS-CoV Urbani / Binding of serum 6 to looped/cyclic peptides of protein M of SARS-CoV Urbani / Binding of serum 37 to looped/cyclic peptides of protein M of SARS-CoV Urbani / Binding of serum 6 to linear peptides of protein X3 of SARS-CoV Urbani / Binding of serum 37 to linear peptides of protein X3 of SARS-CoV Urbani / Binding of serum 37 to looped/cyclic peptides of protein X3 of SARS-CoV Urbani / Binding of serum 6 to linear peptides of protein X4 of SARS-CoV Urbani / Binding of serum 37 to linear peptides of protein X4 of SARS-CoV Urbani / Binding of serum 37 to looped/cyclic peptides of protein X4 of SARS-CoV Urbani / Binding of serum 6 to linear peptides of protein X5 of SARS-CoV Urbani / Binding of serum 37 to linear peptides of protein X5 of SARS-CoV Urbani / Binding of serum 37 to looped/cyclic peptides of protein X5 of SARS-CoV Urbani / Binding of serum 6 to linear peptides of protein N of SARS-CoV Urbani / Binding of serum 37 to linear peptides of protein N of SARS-CoV Urbani / Binding of serum 6 to linear peptide (PEPSCAN-ELISA) / Binding of serum 1a to looped/cyclic peptides of protein N of SARS-CoV Urbani / Binding of serum 1b to looped/cyclic peptides of protein N of SARS-CoV Urbani / Binding of serum 2 to looped/cyclic peptides of protein N of SARS-CoV Urbani / Binding of serum 6 to looped/cyclic peptides of protein N of SARS-CoV Urbani / Binding of serum 37 to looped/cyclic peptides of protein N of SARS-CoV Urbani / Binding of serum 62 to looped/cyclic peptides of protein N of SARS-CoV Urbani / Binding of serum London to looped/cyclic peptides of protein N of SARS-CoV Urbani / Binding of serum SARS-green to looped/cyclic peptides of protein N of SARS-CoV Urbani: unit not given here

Sequence	Binding of Control Serum Blood-Bank to Looped peptides [2]	Binding of Control serum Blood-bank to linear peptides [2]	Binding of Control serum LUMC to linear peptides [2]	Binding of Control serum LUMC to looped peptides [2]	Binding of a rabbit serum to linear peptides [1]	Binding of a rabbit serum to looped peptides [1]	Binding of serum 1a to linear peptides of protein X1 of SARS-CoV Urbani [3]	Binding of serum 1a to looped/cyclic peptide (PEPSCAN-ELISA) [3]	Binding of serum 1b to linear peptides of protein X1 of SARS-CoV Urbani [3]	Binding of serum 1b to looped/cyclic peptide (PEPSCAN-ELISA) [3]	Binding of serum 2 to linear peptides of protein X1 of SARS-CoV Urbani [3]	Binding of serum 2 to looped/cyclic peptide (PEPSCAN-ELISA) [3]	Binding of serum 6 to linear peptides of protein X1 of SARS-CoV Urbani [3]	Binding of serum 6 to looped/cyclic peptide (PEPSCAN-ELISA) [3]	Binding of serum 37 to linear peptides of protein X1 of SARS-CoV Urbani [3]	Binding of serum 37 to looped/cyclic peptide (PEPSCAN-ELISA) [3]	Binding of serum 62 to looped/cyclic peptide (PEPSCAN-ELISA) [3]	Binding of serum London to looped/cyclic peptide (PEPSCAN-ELISA) [3]	Binding of serum SARS-green to looped/cyclic peptide (PEPSCAN-ELISA) [3]	Binding of serum SARS-yellow to looped/cyclic peptide (PEPSCAN-ELISA) [3]	further results
ADNKFALTCTSTHFA	0.7	0.8	0.9	0.9																	Rabbit serum linear peptides [1]: 0.7; Rabbit serum looped peptides [1]: 0.2
AEILIIIMRTFRIAI																					Rabbit serum linear peptides [1]: 0.3; Rabbit serum looped peptides [1]: 0.0; Binding of Control Serum Blood-Bank to Looped peptides of the protein X3 of SARS-CoV Urbani [2]: 0.7; Binding of Control serum Blood-bank to linear peptides of the protein X3 of SARS-CoV Urbani [2]: 0.7; Binding of Control serum LUMC to linear peptides of the protein X3 of SARS-CoV Urbani [2]: 0.4; Binding of Control serum LUMC to looped peptides of the protein X3 of SARS-CoV Urbani [2]: 0.8
AGHPLGRCDIKDLPK																					Rabbit serum linear peptides [1]: 0.1; Rabbit serum looped peptides [1]: 0.1; Binding of Control Serum Blood-Bank to Looped peptides of the protein M of SARS-CoV Urbani [2]: 0.9; Binding of Control serum Blood-bank to linear peptides of the protein M of SARS-CoV Urbani [2]: 1.1; Binding of Control serum LUMC to linear peptides of the protein M of SARS-CoV Urbani [2]: 0.8; Binding of Control serum LUMC to looped peptides of the protein M of SARS-CoV Urbani [2]: 0.7
ANYFVCWHTHNYDYC	0.5	0.7	0.7	0.6	0.1	0.5															
AQPVKIDNASPASTV	1.0	0.7	0.6	1.0	0.1	0.5															
ATFFIFNKLVKDPPN	0.8	0.5	0.5	0.8	0.1	0.6															
AVFQSATKIIALNKR							0.8	0.4	0.6	0.4	0.6	0.6	0.8	0.7	0.7	0.6	0.6	0.9	0.2	0.4	Binding of serum 62 to linear peptides of protein X1 of SARS-CoV Urbani [3]: 0.6; Binding of serum London to linear peptides of protein X1 of SARS-CoV Urbani [3]: 0.3; Binding of serum SARS-green to linear peptides of protein X1 of SARS-CoV Urbani [3]: 0.3; Binding of serum SARS-yellow to linear peptides of protein X1 of SARS-CoV Urbani [3]: 0.5; Recognition of the peptide by the rabbit serum [1]: recognized
CAYCCNIVNVSLVKP	0.9	1.1	0.7	0.7	0.6	0.2															
CCNIVNVSLVKPTVY	0.4	0.7	0.5	0.5	0.6	0.0															
FQSATKIIALNKRWQ							0.8	0.5	0.6	0.3	0.6	0.4	0.6	0.5	0.7	0.5	0.5	0.2	0.3	0.2	Binding of serum 62 to linear peptides of protein X1 of SARS-CoV Urbani [3]: 0.7; Binding of serum London to linear peptides of protein X1 of SARS-CoV Urbani [3]: 0.3; Binding of serum SARS-green to linear peptides of protein X1 of SARS-CoV Urbani [3]: 0.4; Binding of serum SARS-yellow to linear peptides of protein X1 of SARS-CoV Urbani [3]: 0.4; Recognition of the peptide by the rabbit serum [1]: recognized
IALNKRWQLALYKGF							0.8	0.5	0.7	0.4	0.6	0.5	0.9	0.4	0.7	0.5	0.7	0.3	0.4	0.6	Binding of serum 62 to linear peptides of protein X1 of SARS-CoV Urbani [3]: 0.7; Binding of serum London to linear peptides of protein X1 of SARS-CoV Urbani [3]: 0.3; Binding of serum SARS-green to linear peptides of protein X1 of SARS-CoV Urbani [3]: 0.4; Binding of serum SARS-yellow to linear peptides of protein X1 of SARS-CoV Urbani [3]: 0.5; Recognition of the peptide by the rabbit serum [1]: recognized
KIIALNKRWQLALYK							0.8	0.7	0.7	0.5	0.7	0.7	1.0	0.8	0.8	0.8	0.7	0.3	0.3	0.5	Binding of serum 62 to linear peptides of protein X1 of SARS-CoV Urbani [3]: 0.8; Binding of serum London to linear peptides of protein X1 of SARS-CoV Urbani [3]: 0.4; Binding of serum SARS-green to linear peptides of protein X1 of SARS-CoV Urbani [3]: 0.4; Binding of serum SARS-yellow to linear peptides of protein X1 of SARS-CoV Urbani [3]: 0.5; Recognition of the peptide by the rabbit serum [1]: recognized
RCWLCWKCKSKNPLL					0.1	0.7		0.7		0.5		0.7		0.8		0.8	0.7	0.4	0.4	0.7	Recognition of the peptide by sera of SARS-CoV infected individuals, and form (linear, looped/cyclic) in which it is recognized [3]: recognized in linear form
